Blank lines part the entries; values can stand above or below the compound they belong to.
Experiments:
[1] = Half life was evaluated in dog; assay type: ADME, organism-based, Canis lupus familiaris; settings: in vivo
[2] = Oral bioavailability in dog; assay type: ADME, organism-based, Canis lupus familiaris; settings: in vivo
Mus sp. = experiment: In vivo for PAF antagonist activity in mice after oral administration; assay type: functional
Rattus norvegicus = species on record: Rattus norvegicus; experiment: Calcium channel blocking activity in K+ stimulated rat aorta assay; assay type: functional
[3] = Inhibition of [3H]nitrendipine binding to dihydropyridine sites of bovine frontal cortex membranes; assay type: tissue-based, Bos taurus
[4] = Plasma half life was evaluated in dog; assay type: ADME, organism-based, Canis lupus familiaris
[5] = Plasma half life was evaluated; assay type: ADME, organism-based, Canis lupus familiaris; settings: dog
[6] = Plasma half life was evaluated in Dog; assay type: ADME, organism-based, Canis lupus familiaris

- half-life [1]: 4.4 h
- bioavailability [2]: 9%
SMILES: CCO/C(O)=C1\C(COCCn2c(C)nc(C)c2C)=NC(C)=C(C(=O)Nc2cccc(C)n2)C1c1ccccc1Cl (stereo unspecified)
- ED50 (Mus sp.; Mus sp., po, read-out: ED50): 4.5 mg/kg

- IC50 (Rattus norvegicus): > 1 µM
- IC50 [3]: > 10 µM
SMILES: CCO/C(O)=C1\C(COCCn2c(C)nc(C)c2C)=NC(C)=C(C(=O)OC)[C@H]1c1ccccc1Cl

SMILES: CCO/C(O)=C1\C(COCCn2c(C)nc3ccncc32)=NC(C)=C(C(=O)Nc2ccccn2)C1c1ccccc1Cl (stereo unspecified)
- ED50 (Mus sp.; Mus sp., po, read-out: ED50): 29 mg/kg

SMILES: CCO/C(O)=C1\C(COCCn2c(C)nc(C)c2C)=NC(C)=C(C(=O)Nc2ccccc2)C1c1ccccc1Cl (stereo unspecified)
- ED50 (Mus sp.; Mus sp., po, read-out: ED50): 18 mg/kg

- bioavailability [2]: 100%
- half-life [4]: 1.2 h
SMILES: CCOC(=O)C1=C(c2ccc(-n3c(C)nc4cnccc43)cc2)NC(C)=C(C(=O)Nc2ccccn2)C1c1ccccc1Cl (stereo in doubt; 18)
- ED50 (Mus sp.): 0.26 mg/kg

SMILES: CCO/C(O)=C1\C(COCCn2c(C)nc3ccccc32)=NC(C)=C(C(=O)Nc2ccccn2)C1c1ccccc1Cl (stereo unspecified)
- ED50 (Mus sp.; Mus sp., po, read-out: ED50): 49 mg/kg

- IC50 (Rattus norvegicus): 0.012 µM
- IC50 [3]: 0.041 µM
SMILES: CCO/C(O)=C1\C(COCCn2c(C)nc(C)c2C)=NC(C)=C(C(=O)OC)[C@@H]1c1ccccc1Cl

SMILES: CCOC(=O)C1=C(c2ccc(-n3c(C)nc4cnccc43)cc2)NC(C)=C(C(=O)Nc2ccccn2)C1c1ccccc1Cl (single isomer, unassigned; (+))
- ED50 (Mus sp.): 0.15 mg/kg

SMILES: CCO/C(O)=C1\C(COCCn2c(C)nc(C)c2C)=NC(C)=C(C(=O)NC(C)(C)C)C1c1ccccc1Cl (stereo unspecified)
- ED50 (Mus sp.; Mus sp., po, read-out: ED50): 10.1 mg/kg

- IC50 (Rattus norvegicus): 0.014 µM
- IC50 [3]: 0.096 µM
SMILES: CCO/C(O)=C1\C(COCCn2c(C)nc(C)c2C)=NC(C)=C(C(=O)OC)C1c1ccccc1Cl (stereo unspecified)

SMILES: CCO/C(O)=C1\C(COCCn2c(C)nc3cccnc32)=NC(C)=C(C(=O)Nc2ccccn2)C1c1ccccc1Cl (stereo unspecified)
- ED50 (Mus sp.; Mus sp., po, read-out: ED50): 25 mg/kg

SMILES: CCO/C(O)=C1\C(COCCn2c(C)nc3ncccc32)=NC(C)=C(C(=O)Nc2ccccn2)C1c1ccccc1Cl (stereo unspecified)
- ED50 (Mus sp.; Mus sp., po, read-out: ED50): 31 mg/kg

- bioavailability [2]: 4%
- half-life [5]: 0.75 h
SMILES: CCO/C(O)=C1\C(COCCn2c(C)nc3cnccc32)=NC(C)=C(C(=O)Nc2ccccn2)C1c1ccccc1Cl (stereo unspecified)
- ED50 (Mus sp.; Mus sp., po, read-out: ED50): 2 mg/kg

- bioavailability [2]: 30%
- half-life [6]: 1.2 h
SMILES: CCO/C(O)=C1\C(COCCn2c(C)nc3ccccc32)=NC(C)=C(C(=O)NC(C)(C)C)C1c1ccccc1Cl (stereo unspecified)
- ED50 (Mus sp.; Mus sp., po, read-out: ED50): 34 mg/kg

SMILES: CCOC(=O)C1=C(c2ccc(-n3c(C)nc4cnccc43)cc2)NC(C)=C(C(=O)Nc2ccccn2)C1c1ccccc1Cl (single isomer, unassigned; (-))
- ED50 (Mus sp.): 3.8 mg/kg
